Laboratory results taken from the METLIN SMRT retention time set (Domingo-Almenara et al. 2019).

Assay: gradient 5% acetonitrile 3 min, to 50% in 2 min, to 85% in 15 min, held 3 min, 100 µL/min
Settings: column: Zorbax Extend-C18 2.1 x 50 mm; eluents: water / acetonitrile, 0.1% formic acid
Procedure, shortened: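 Pure standards were analyzed in mixtures of ~100 molecules using HPLC coupled to a quadrupole time-of-flight mass spectrometer, in both positive and negative ionization mode. Separation used a Zorbax Extend-C18 column (2.1 × 50 mm, 1.8 μm) at 100 μL/min, with water and acetonitrile each containing 0.1% formic acid. Dead and dwell volumes were 40 μL and 900 μL, and data were collected over 3 months. Retention time was read from computationally picked adduct peaks, each inspected manually.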

| SMILES | RP-LC retention time |
| --- | --- |
| CCC(=O)N1CCC(C(=O)Nc2ccc(S(=O)(=O)N3CCCC3)cc2)CC1 | 697 s |
| CCC1Oc2ccc(S(=O)(=O)N3CCC(C(=O)NCCc4ccccc4)CC3)cc2NC1=O (stereo not drawn) | 872 s |
| O=C(c1cc2ccccc2[nH]1)N1CCOCC1 | 713 s |
| CN(Cc1ccco1)C(=O)c1ccc(NC(=O)C2CC2)cc1N1CCCCCC1 | 869 s |
| CCOc1cc(=O)n2c(c1C(=O)Nc1ccc(Cl)cc1C)CCCC2 | 786 s |
| Cc1ccc(C)c(NC(=O)Cn2c(C)cc(-c3nnc(C4CC4)o3)c2C)c1 | 851 s |
| COCC(=O)N1CCC(Oc2nccnc2N2CCc3ccccc32)C1 (stereo not drawn) | 779 s |
| CCCn1c(=O)c(C)nc2cc(-c3noc(-c4cc(OC)cc(OC)c4)n3)ccc21 | 1090 s |
| CC12CC(c3ccccc3O1)C(C(=O)Nc1cccc(C(F)(F)F)c1)C(=O)N2 (stereo not drawn) | 897 s |
| CCc1nc(-c2csc(S(=O)(=O)N3CCCC(C(=O)Nc4ccc(F)cc4C)C3)c2)no1 (stereo not drawn) | 1020 s |
| O=C(NCc1cscn1)C1CCN(S(=O)(=O)c2cccc(Cl)c2)CC1 | 747 s |
| Cn1ncc(Br)c1C(=O)N1CCCC1c1cccc(F)c1 (stereo not drawn) | 867 s |
| CN(C)CCCNC(=O)C1CCN(c2nc3ccc(-c4cccnc4)nc3s2)CC1 | 543 s |
| COc1ccc(C2(C(=O)N3CCCCCCNC(=O)[C@@H]4CCCC[C@@H]43)CC2)cc1 | 894 s |
| O=C(COc1ccccc1F)NCC1CCN(Cc2cccs2)CC1 | 560 s |
| COc1ccc(NC(=O)N2CCC3(CC2)NC(=O)c2ccccc2N3C)c(C)c1 | 781 s |
| CCc1ccccc1NC(=O)C1CCN(S(=O)(=O)c2ccc3c(c2)CCCC(=O)N3)CC1 | 757 s |
| CCCCC1CCC(C(=O)Nc2nc(-c3ccc4c(c3)NC(=O)CO4)c(C)s2)CC1 (stereo not drawn) | 1240 s |
| COc1ccccc1CCNS(=O)(=O)c1cc2c3c(c1)CCC(=O)N3CCC2 | 882 s |
| Cc1sc(C)c(S(=O)(=O)N2CC=C(c3ccccc3)CC2)c1-c1cc(C(F)(F)F)on1 | 1300 s |
| O=C(c1cccs1)N1CC(C(=O)N2CCC(O)CC2)C1 | 566 s |
| O=C(NCCN1CCOCC1)c1ccc2ccnc(N3CCN(C(=O)c4ccco4)CC3)c2c1 | 567 s |

| SMILES | RP-LC retention time |
| --- | --- |
| CN(C)S(=O)(=O)c1ccc2c(c1)N(CC(=O)NCCc1ccccc1)C(=O)C1CCCCN21 (stereo not drawn) | 918 s |
| O=C(CC1CCN(C(=O)NCc2ccccc2)CC1)N1CCCCC1 | 703 s |
| CCOC(=O)c1c(CN2CCN(C)CC2)n(-c2ccccc2)c2cc(Br)c(OC)cc12 | 850 s |
| Cc1ccccc1C(=O)Nc1ccccc1NC(=O)C1CCC1 | 795 s |
| Cn1nc(-c2nc(C3CC3)no2)c2c1CCN(C(=O)c1ccc(C(C)(C)C)cc1)C2 | 1290 s |
| COc1cc2c(c3oc4cccc(O)c4c(=O)c13)C1C=CO[C@@H]1O2 (stereo partly drawn) | 989 s |
| CC1(C)CC(=O)c2cn(-c3ccccc3)c(=O)c(C(=O)NC3CCCCC3)c2C1 | 1010 s |
| Cc1ccc(NC(=O)C2CC(=O)N(c3ccc4c(c3)CCN4C(=O)C3CC3)C2)c(F)c1 (stereo not drawn) | 787 s |
| CCN1CCN(CCNC(=O)CN2C(=O)C3CCCCN3c3ccc(C(=O)N4CCCC4)cc32)CC1 (stereo not drawn) | 591 s |
| COc1ccc(C(=O)Nc2ccc3nc(N4CCN(C5CCCCC5)CC4)cc(C(=O)O)c3c2)cc1 | 614 s |
| CCc1nc(-c2csc(S(=O)(=O)N3CCCC(C(=O)Nc4ccc(C)c(F)c4)C3)c2)no1 (stereo not drawn) | 1110 s |
| COc1ccc(OC)c(CNC(=O)c2[nH]c3cc(C)sc3c2CN(C)C)c1 | 676 s |
| O=C(c1ccc(F)c(F)c1)N1CCN(c2nc(CN3CCCC3)cs2)CC1 | 635 s |
| CCc1ccccc1S(=O)(=O)N1CCN(c2nc3ccncc3n(C(C)C)c2=O)CC1 | 632 s |
| Cc1cc(N2CCCC2)nc(N2CCN(C(=O)CC3CCCC3)CC2)n1 | 694 s |
| CC(CCNC(=O)c1ccc(NC(=O)C2=CSCCO2)cc1)N1CCCC1 (stereo not drawn) | 600 s |
| CCOC(=O)c1cccc(NC(=O)C2CCN(C(=O)C3Sc4ccccc4NC3=O)CC2)c1 (stereo not drawn) | 812 s |
| CCn1c(C(=O)N2CCN(c3cccc(C)c3C)CC2)cc2sccc21 | 1070 s |
| Cc1ccc(NC(=O)C2CCCN(S(=O)(=O)c3c[nH]c(C(=O)N4CCCC4)c3)C2)c(C)c1 (stereo not drawn) | 814 s |
| CSc1c(C)c(SC)n2ccncc12 | 725 s |
| O=C(c1ccsc1)N1CC(c2nc(CCOCC3CCOCC3)no2)C1 | 696 s |

Further lines, results first:

| RP-LC retention time | SMILES |
| --- | --- |
| 961 s | COc1ccc(CNC(=O)C2(C)CCN(S(=O)(=O)c3ccc(Br)s3)CC2)cc1 |
| 1030 s | Cn1cc2c3c(cccc31)CN(C(=O)c1ccc(Br)cc1)CC2 |
| 874 s | CC(C)NC(=O)c1ccc(-c2ccc(Cl)cc2)o1 |
| 919 s | O=C(CN1C(=O)CCCc2cc(S(=O)(=O)N3CCCCCC3)ccc21)NCc1ccc(F)cc1 |
| 904 s | Cn1c(=O)c(N2CCC(NC(=O)Nc3ccc(Cl)cc3)CC2)nc2ccccc21 |
| 822 s | CC(=O)c1ccc(NS(=O)(=O)c2ccc3ccccc3c2)cc1 |
| 990 s | COC(=O)c1ccc(NC(=O)c2csc(-c3cn(C)c4ncccc34)n2)cc1 |
| 785 s | C=Cc1ccc(CN2CCCN(c3ncccc3-c3nc(C(C)C)no3)CC2)cc1 |
| 754 s | CCOc1ccc(N(Cc2nc3nc(C)cc(C)n3n2)C(=O)c2ccco2)cc1 |
| 824 s | COc1ccc(N(Cc2nc3nc(C)c(Cl)c(C)n3n2)C(=O)c2ccco2)cc1 |
| 648 s | CN(C)c1ccc(CNC(=O)c2nnc(-c3ccc(S(=O)(=O)N4CCOCC4)cc3)o2)cc1 |
| 618 s | CCc1cccc(NC(=O)Cn2c(N)nc(C)cc2=O)c1 |
| 605 s | Cc1ccccc1-c1ccc(N2CCC(C(=O)NCc3ccco3)CC2)nn1 |
| 1070 s | COc1cccc(Cn2c(=O)c3sccc3n(Cc3nc(-c4ccc(F)cc4)no3)c2=O)c1 |
| 696 s | Cc1oc(-c2ccc(C(=O)NCCN(C)C)cc2)nc1CSc1ccccc1 |
| 732 s | CCc1ccc(NC(=O)NCC2CCOCC2)cc1 |
| 648 s | Cc1ccc(CNc2cc(-n3ccnc3)ncn2)cc1 |
| 724 s | COc1ccc(-c2cn3c(CC(=O)Nc4ccccc4F)csc3n2)cc1OC |
| 711 s | Cc1ccc(CNS(=O)(=O)c2cc3n(c2)CCCN(C)C3=O)cc1 |
| 1060 s | Cc1ccc(-n2ccc(=O)c(-c3nc(-c4ccccc4C)no3)n2)cc1C |
| 935 s | Cc1ccc(CNC(=O)C2(C)CN(S(C)(=O)=O)CC(=O)N2c2ccc(C(C)C)cc2)cc1 (stereo not drawn) |
| 1160 s | Cc1ccc(Cn2c(N3CCCC(C(=O)Nc4cc(C)cc(C)c4)C3)nc3ccsc3c2=O)cc1 (stereo not drawn) |
| 807 s | Cc1ccc(S(=O)(=O)N2CC3CN(C(=O)c4cccn4C)CC(C2)O3)cc1 |

| RP-LC retention time | SMILES |
| --- | --- |
| 743 s | Cc1nc2cc(N3CC(C(=O)NCc4ccc(Cl)cc4)CC3=O)ccc2o1 (stereo not drawn) |
| 943 s | COC(=O)C1=CN(c2cc(C)cc(C)c2)c2ccccc2S1(=O)=O |
| 935 s | COc1ccc(-c2nn3c(-c4ccccc4F)nnc3s2)cc1 |
| 1150 s | CCCC(=O)N1CCc2c([nH]c3ccccc23)C1c1ccc(C)cc1 (stereo not drawn) |
| 725 s | Cc1ccc(CNC(=O)CN2CCN(C(=O)Nc3ccc(Cl)cc3)CC2=O)o1 |
| 1250 s | Cc1ccc(-c2nnc(-c3ccc(Cl)c(S(=O)(=O)N4CCCCC4)c3)o2)cc1 |
| 677 s | Cc1ccc(-c2noc(CCN3CCN(c4ncccn4)CC3)n2)cc1 |
| 832 s | COc1cccc(OC)c1C(=O)Nc1nnc(SCc2nnc(-c3ccccc3)o2)s1 |
| 1020 s | Cc1cc(C)cc(-n2ccnc(NC(=O)Nc3cccc(F)c3)c2=O)c1 |
| 602 s | CN(C)c1ccc(CNC(=O)CCCN2C(=O)CCn3nc(-c4cn(C)c5ccccc45)cc32)cc1 |
| 1040 s | CCc1nc(-c2ccc3c(c2)CCN3C(=O)Cc2ccc(OC)cc2)no1 |
| 580 s | Cc1nc2cccnc2n1-c1ccc(C(=O)NCCCN2CCCC2=O)cc1 |
| 1030 s | COc1ccc(C)cc1NC(=O)C1CCN(S(C)(=O)=O)c2cc(C)ccc2O1 (stereo not drawn) |
| 784 s | O=C(NC1CCCC1)C1CCCN(c2ccc(=O)n(-c3cccc(F)c3)n2)C1 (stereo not drawn) |
| 620 s | CCN1CCN(c2cc(C)c3cc(NC(=S)N4CCN(c5ccccc5F)CC4)ccc3n2)CC1 |
| 726 s | O=C(Nc1ccc2nncn2c1)Nc1cc(F)ccc1F |
| 683 s | O=C(NCc1ccccc1)C1CCN(S(=O)(=O)c2ccc3[nH]c(=O)ccc3c2)CC1 |
| 824 s | CCCCOc1ccc(NC(=O)c2cc(=O)c3cc(Cl)c(C)cc3o2)c2cccnc12 |
| 900 s | Cc1ccc(NC(=O)C(C)C2CCN(C(=O)Nc3ccccc3)CC2)cc1C (stereo not drawn) |
| 869 s | Cc1ccc(NC(=O)Cn2nc(N(C)C)c3ccccc3c2=O)c(C)c1 |
| 767 s | CCOc1ccc(CCNC(=O)C2CCCN(c3nccc(C)n3)C2)cc1OCC (stereo not drawn) |
| 691 s | Cc1cccc(CS(=O)(=O)N(CCc2cccs2)Cc2cccnc2)c1 |
